Measurements from patent US20060167084A1, “Delta-9-THC compositions and methods for treating symptoms associated with multiple sclerosis” (Unimed Pharmaceuticals, Inc., priority 2003, published 2006).

What was measured:
[1] = test system: patients with multiple sclerosis; experiment: Category-rating scales of symptoms (patient reported secondary outcomes); type: in vivo, human
[2] = test system: spasticity related to multiple sclerosis; experiment: Ashworth score of spasticity, randomized placebo-controlled MS study; type: in vivo, human; details: baseline to 13 weeks' follow-up
[3] = test system: patients with multiple sclerosis; experiment: Timed 10 meter walk; type: in vivo, human; details: baseline to follow-up (visit 7)
[4] = test system: patients with multiple sclerosis; experiment: Patient assessment of treatment benefit at visit 8; type: in vivo, human
[5] = test system: patients with multiple sclerosis; experiment: Adverse events reported by patients

Structure (SMILES): CCCCCc1cc(O)c2c(c1)OC(C)(C)[C@@H]1CCC(C)=C[C@@H]21 [delta-9-THC, (6aR-trans)-6a,7,8,10a-tetrahydro-6,6,9-trimethyl-3-pentyl-6H-dibenzo>b,d!pyran-1-ol]
- Depression: Deterioration, patients ([1]; number of patients): 42
- Depression: Improvement, patients ([1]; number of patients): 36
- Depression: Same, patients ([1]; number of patients): 47
- Energy: Deterioration, patients ([1]; number of patients): 49
- Energy: Improvement, patients ([1]; number of patients): 61
- Energy: Same, patients ([1]; number of patients): 63
- Irritability: Deterioration, patients ([1]; number of patients): 32
- Irritability: Improvement, patients ([1]; number of patients): 37
- Irritability: Same, patients ([1]; number of patients): 42
- Pain: Deterioration, patients ([1]; number of patients): 22
- Pain: Improvement, patients ([1]; number of patients): 64
- Pain: Same, patients ([1]; number of patients): 43
- Shake/tremor: Deterioration, patients ([1]; number of patients): 32
- Shake/tremor: Improvement, patients ([1]; number of patients): 52
- Shake/tremor: Same, patients ([1]; number of patients): 44
- Sleep: Deterioration, patients ([1]; number of patients): 24
- Sleep: Improvement, patients ([1]; number of patients): 71
- Sleep: Same, patients ([1]; number of patients): 57
- Spasms: Deterioration, patients ([1]; number of patients): 37
- Spasms: Improvement, patients ([1]; number of patients): 81
- Spasms: Same, patients ([1]; number of patients): 49
- Spasticity: Deterioration, patients ([1]; number of patients): 47
- Spasticity: Improvement, patients ([1]; number of patients): 89
- Spasticity: Same, patients ([1]; number of patients): 40
- Tiredness: Deterioration, patients ([1]; number of patients): 76
- Tiredness: Improvement, patients ([1]; number of patients): 35
- Tiredness: Same, patients ([1]; number of patients): 46
- Depression: Deterioration ([1]; percent of patients): (34%)
- Depression: Improvement ([1]; percent of patients): (29%)
- Depression: Same ([1]; percent of patients): (38%)
- Energy: Deterioration ([1]; percent of patients): (28%)
- Energy: Improvement ([1]; percent of patients): (35%)
- Energy: Same ([1]; percent of patients): (36%)
- Irritability: Deterioration ([1]; percent of patients): (29%)
- Irritability: Improvement ([1]; percent of patients): (33%)
- Irritability: Same ([1]; percent of patients): (38%)
- Pain: Deterioration ([1]; percent of patients): (17%)
- Pain: Improvement ([1]; percent of patients): (50%)
- Pain: Same ([1]; percent of patients): (33%)
- Shake/tremor: Deterioration ([1]; percent of patients): (25%)
- Shake/tremor: Improvement ([1]; percent of patients): (41%)
- Shake/tremor: Same ([1]; percent of patients): (34%)
- Sleep: Deterioration ([1]; percent of patients): (16%)
- Sleep: Improvement ([1]; percent of patients): (47%)
- Sleep: Same ([1]; percent of patients): (38%)
- Spasms: Deterioration ([1]; percent of patients): (22%)
- Spasms: Improvement ([1]; percent of patients): (49%)
- Spasms: Same ([1]; percent of patients): (29%)
- Spasticity: Deterioration ([1]; percent of patients): (27%)
- Spasticity: Improvement ([1]; percent of patients): (51%)
- Spasticity: Same ([1]; percent of patients): (23%)
- Tiredness: Deterioration ([1]; percent of patients): (48%)
- Tiredness: Improvement ([1]; percent of patients): (22%)
- Tiredness: Same ([1]; percent of patients): (29%)
- Mean (SD) change in Ashworth score, lower-body muscle groups [2]: 1.39 (5.21)
- Mean (SD) change in Ashworth score, upper-body muscle groups [2]: 0.48 (4.70)
- Mean (SD) change in total Ashworth score (baseline minus follow-up) ([2]; all muscle groups): 1.86 (7.95)
- Reduction of median time taken to walk 10 meters [3]: 12%
- Symptom improvement Bladder: No, patients ([4]; visit 8, number of patients): 97
- Symptom improvement Bladder: Yes, patients ([4]; visit 8, number of patients): 67
- Symptom improvement Pain: No, patients ([4]; visit 8, number of patients): 64
- Symptom improvement Pain: Yes, patients ([4]; visit 8, number of patients): 64
- Symptom improvement Spasticity: No, patients ([4]; visit 8, number of patients): 73
- Symptom improvement Spasticity: Yes, patients ([4]; visit 8, number of patients): 108
- Symptom improvement Tremor: No, patients ([4]; visit 8, number of patients): 67
- Symptom improvement Tremor: Yes, patients ([4]; visit 8, number of patients): 44
- Symptom improvement Bladder: No ([4]; visit 8, percent of patients): (59%)
- Symptom improvement Bladder: Yes ([4]; visit 8, percent of patients): (40%)
- Symptom improvement Pain: No ([4]; visit 8, percent of patients): (50%)
- Symptom improvement Pain: Yes ([4]; visit 8, percent of patients): (50%)
- Symptom improvement Spasticity: No ([4]; visit 8, percent of patients): (40%)
- Symptom improvement Spasticity: Yes ([4]; visit 8, percent of patients): (60%)
- Symptom improvement Tremor: No ([4]; visit 8, percent of patients): (60%)
- Symptom improvement Tremor: Yes ([4]; visit 8, percent of patients): (40%)
- Incidences of MS relapse by comparison with placebo ([5]; in words): greatly reduced
- Adverse event: Blocked/insertion of suprapubic catheter ([5]; number of events reported): 0
- Adverse event: Constipation ([5]; number of events reported): 0
- Adverse event: Grand mal seizure ([5]; number of events reported): 0
- Adverse event: MS relapse or possible relapse ([5]; number of events reported): 1
- Adverse event: Other ([5]; number of events reported): 11
- Adverse event: Pneumonia ([5]; number of events reported): 2
- Adverse event: Urinary tract infection ([5]; number of events reported): 3
